Data reported in patent US20140113869A1, “Gbetagamma BINDING SITE ON THE PIK3CB GENE PRODUCT AND METHODS OF USE” (Albert Einstein College of Medicine of Yeshiva University, priority 2011, published 2014).
Ends that are not written are not given here. * marks the point of attachment. Myristoyl = CCCCCCCCCCCCCC(=O)*

Legend:
[1] = system: Gβγ activation of Akt (pT308-Akt) in NIH3T3 cells; assay: pT308-Akt blotting in NIH3T3 cells transfected with Gβγ; type: cell-based; conditions: for Gβγ activation of Akt (pT308-Akt): myristoylated vs TAT-tagged vs unmodified peptide, FIG. 6B
Experimental: FIG. 6A-6B. (6A) NIH3T3 cells were transfected without or with Gβγ and incubated with scrambled (control) or p110β peptide. pT308-Akt was measured by blotting. (6B) Cell transfected as above were incubated with myristoylated peptide, TAT-tagged peptide, or unmodified peptide. pT308-Akt was measured by blotting.
(§1) To test the possibility that small molecules targeting the p110β-Gβγ interface could be used as therapeutics, a peptide was designed derived from the Gβγ-binding loop in p110β. having the sequence […] (SEQ ID NO:6) a scrambled version of the peptide serves as a negative control. […] The test whether the peptide could be efficacious in vivo, we created a cell permeable myristylated version of the peptide. The peptide blocked activation of Akt in cells transfected with Gβγ (FIG. 6A); the peptide's inhibitory activity required its entry into the cells, since both myristoylated and TAT-tagged peptide inhibited Gβγ activation of Akt, whereas unlabeled peptide had no effect (FIG. 6B). The myristoylated peptide blocked the formation of colonies in soft agar (FIG. 7A) and the formation of foci (FIG. 7B), both measures of transformation, in NIH3T3 cells transfected with p85/p110β.

[2] = system: p85/p110β dimers activated by Gβγ; assay: In vitro activation of p85/p110β dimers by Gβγ (lipid kinase activity); type: biochemical; conditions: peptide 5-fold in excess of Gβγ; FIG. 5
Experimental: FIG. 5. Percent stimulation of p85/p110β dimers incubated without or with Gβγ in the absence or presence of 5-1Old excess peptide. Pep=p110β peptide. Scram=scrambled peptide control.
(§2) FIG. 9A-9D. Peptide inhibitors of Gβγ -mediated p110β/p85 activation are specific for p85/p110β. (9A) Myristoylated p110β peptides or SIGK peptide were preincubated with biotinylated Gβγ or 5 min, followed by addition of phage particles displaying the SIGK peptide, After a 1 h incubation at room temperature, Anti-M-13 phase monoclonal antibody was added followed by addition of Streptavidin coated Alphascreen donor beads and protein A coated Alphascreen acceptor beads. After a 2 h incubation, the Alphascreen signal was read on a Perkin Elmer Envision Multilabel Plate reader. […] Bound proteins were analyzed by western blot. […] The cells were fixed and the number of GFP punctae per cell was counted using a Nikon Eclipse 400 microscope with 60× 1.4 N.A. optics. […]

Class IB PI3K p101/p110γ = assay: Gβγ-dependent activation of p101/p110γ, pT308-Akt western blot in HEK293E cells; type: cell-based; conditions: FIG. 9C
Experimental: as §2

[3] = system: NIH3T3 cells transfected with p85/p110β; assay: Colony formation in soft agar; type: cell-based; conditions: 30 μM peptide; FIG. 7A
Experimental: (§3) FIG. 7A-7B. (7A). NIH3T3 cells were transfected without or with p85/p110β and incubated without or with 30 μM p110β peptide or scrambled control peptide. Colony formation in soft agar by cells transfected and treated with peptide as above. (7B). Foci were measured after 2 weeks.
as §1

p110β binding to Rab5 = biological target: T1, p110β binding to Rab5 (Homo sapiens, UniProt P42338); assay: p110β binding to immobilized GST-Rab5 (pull-down from HEK293T lysates); conditions: FIG. 9E
T1 construct: expressed in transfected cells; host or cells: HEK293T (p85α and p110β)
Experimental: as §2

Gβγ = assay: Alphascreen competition with phage-displayed SIGK peptide for binding to biotinylated Gβγ; conditions: FIG. 9A
Experimental: as §2

[4] = system: NIH3T3 cells transfected with p110β/p85; assay: Wound healing (wound closure) migration assay; type: cell-based; conditions: 30 μM peptide; wound closure after 24h; FIG. 8
Experimental: FIG. 8. NIH3T3 cells were transfected without or with p85/p110β. Confluent monolayers were scratched with a pipette tip, and wound closure after 24h was measured in the absence or presence of 30 μM p110β peptide or scrambled control peptide
as §1

p110β = p110β expression in peptide-treated transfected cells; type: cell-based; conditions: FIG. 7
Experimental: as §3

[5] = system: HEK293A cells expressing GFP-LC3; assay: p110β-dependent induction of autophagy, GFP-LC3 punctae in HEK293A cells; type: cell-based; conditions: PBS containing 100 nM rapamycin, 2 h; FIG. 9F
Experimental: as §2

[6] = system: PC3 prostate cancer cells; assay: PC-3 cell proliferation, MTS assay; type: cell-based; conditions: 30 μM peptide; FIG. 10A
Experimental: (§4) FIG. 10A-10C. Inhibition of prostate cancer cell proliferation and chemotaxis: (A) Proliferation of PC-3 cells was measured by the MTS assay in the absence or presence of 30 μM myristoylated p110β-derived peptide or scrambled peptide. (B) Proliferation assays were performed on two PTEN-null endometrial cancer cell lines (AN3CA and RL95-2) and one PTEN positive endometrial cell line (KLE) grown in the absence or presence of myristoylated p110β-derived peptide or scrambled peptide. (C) PC-3 cells chemotaxis toward 10% […] in the absence or presence of 20 μM p110β-derived peptide or scrambled peptide was measured in Boyden chambers.
(§5) Finally, the peptide was evaluated for effects on the growth of PC3 prostate cancer cells, which are known to require p110β for growth. […] Importantly, published studies have shown that kinase-dead p110β can rescue cell growth in cell lines where proliferation is inhibited by p110β knockout. Since currently available p110β inhibitors target the active site of p110β and act by inhibiting its kinase activity, they would not be expected to suppress the growth of cells that depend on p110β for growth. In contrast, the p110β peptide described here inhibits p110β by a distinct mechanism, and is likely to be more efficacious at suppressing the growth of p110β-dependent prostate cancer cells than active site inhibitors.

[7] = system: recombinant adenylyl cyclase; assay: Synergistic activation of adenylyl cyclase by Gβγ and Gαs in Sf9 cell membranes; type: biochemical; conditions: 30 μM peptide; 20 nM Gsα, 20 nM Gβγ; FIG. 9D
PC3 cells = assay: PC-3 chemotaxis in Boyden chambers; type: cell-based; conditions: 20 μM peptide; toward 10% PBS; FIG. 10C
Experimental: as §4, §5

[8] = system: NIH3T3 cells transfected with p85/p110β; assay: Foci formation; type: cell-based; conditions: 30 μM peptide; foci measured after 2 weeks; FIG. 7B
Experimental: as §3, §1

T1 sequence (P42338 whole entry): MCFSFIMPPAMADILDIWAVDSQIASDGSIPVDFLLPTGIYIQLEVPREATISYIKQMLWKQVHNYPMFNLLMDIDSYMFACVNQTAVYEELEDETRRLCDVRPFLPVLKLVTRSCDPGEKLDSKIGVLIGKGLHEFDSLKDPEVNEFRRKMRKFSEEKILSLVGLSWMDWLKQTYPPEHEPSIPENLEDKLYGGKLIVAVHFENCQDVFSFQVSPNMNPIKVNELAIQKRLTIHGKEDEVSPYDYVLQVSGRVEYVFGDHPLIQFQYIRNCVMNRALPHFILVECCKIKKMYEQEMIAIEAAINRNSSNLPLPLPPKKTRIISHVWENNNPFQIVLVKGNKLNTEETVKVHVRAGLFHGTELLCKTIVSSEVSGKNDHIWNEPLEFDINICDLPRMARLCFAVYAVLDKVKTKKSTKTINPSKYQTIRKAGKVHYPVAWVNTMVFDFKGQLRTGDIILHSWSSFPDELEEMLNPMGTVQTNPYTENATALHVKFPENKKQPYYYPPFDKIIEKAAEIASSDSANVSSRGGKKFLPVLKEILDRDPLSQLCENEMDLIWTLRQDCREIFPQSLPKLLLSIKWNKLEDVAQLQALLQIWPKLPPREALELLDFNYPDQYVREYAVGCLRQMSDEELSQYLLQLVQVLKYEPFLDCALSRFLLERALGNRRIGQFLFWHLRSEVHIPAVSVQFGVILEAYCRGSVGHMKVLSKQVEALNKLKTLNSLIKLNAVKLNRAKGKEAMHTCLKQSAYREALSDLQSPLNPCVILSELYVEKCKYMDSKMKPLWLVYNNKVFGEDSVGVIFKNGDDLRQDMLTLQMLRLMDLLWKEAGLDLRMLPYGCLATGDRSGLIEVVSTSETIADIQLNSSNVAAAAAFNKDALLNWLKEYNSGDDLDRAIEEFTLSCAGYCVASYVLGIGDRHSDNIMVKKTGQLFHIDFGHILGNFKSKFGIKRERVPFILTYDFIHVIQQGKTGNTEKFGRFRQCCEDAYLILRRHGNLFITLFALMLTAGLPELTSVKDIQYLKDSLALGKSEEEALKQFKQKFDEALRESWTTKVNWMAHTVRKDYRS

| activation of p110β by Gβγ [2] | p110β binding to Rab5 (p110β binding to Rab5) | competition with the binding to Gβγ of SIGK peptide (Gβγ) | Substance | Gβγ activation of Akt (pT308-Akt) [1] | Gβγ-dependent activation of the Class IB PI3K p101/p110γ (Class IB PI3K p101/p110γ) | formation of colonies in soft agar [3] | activation of Akt in cells transfected with Gβγ (pT308-Akt) ([1]; NIH3T3 cells, FIG. 6A) | enhanced migration in a wound healing assay [4] | p110β expression (p110β) | p110β-dependent induction of autophagy [5] | PC3 cells number (growth) [6] | synergistic activation of adenylyl cyclase by Gβγ and Gαs [7] | PC3 cells chemotaxis toward serum (PC3 cells) | formation of foci [8] |
| --- | --- | --- | --- | --- | --- | --- | --- | --- | --- | --- | --- | --- | --- | --- |
| markedly reduces |  |  | KAAEIASSDSANVSSRGGKKFLPV (SEQ ID NO:6) [peptide] | no effect |  |  |  |  |  |  |  |  |  |  |
|  | no effect | did not compete | myristoylated peptide: cell permeable myristylated version of the p110β peptide KAAEIASSDSANVSSRGGKKFLPV (SEQ ID NO:6) (Myristoyl-KAAEIASSDSANVSSRGGKKFLPV) | inhibited | no effect | blocked | blocked | blocked | did not reduce | no effect | caused a decrease | no effect | inhibited | blocked |
